The data set in a line: Biodistribution of Tc-99m (III) complexes in guinea pigs. It is filed as in vivo.

Excerpt: Biodistribution Data of Selected Tc-99m (III) Complexes in Guinea Pigs

“trans-[1,2-bis[dihydro-2,2,5,5-tetramethyl-3(2H)furanthione-4-methyleneamino]ethane]-bis[tris(3-methoxypropyl)phosphine]technetium-99m (III) [Complex III]”: the “% Heart uptake” value by setting is: (5 min) 1.1 %Injected dose/Organ; (60 min) 1.0 %Injected dose/Organ. Also, the Heart/Blood (ratio at 5 min) is reported as 5.9 and the Heart/Blood (ratio at 60 min) was determined as 3.5. For the same substance, the Heart/Liver (ratio at 5 min) was found to be 0.9 and the Heart/Liver (ratio at 60 min) was determined as 1.5.
Turning to “trans-[1,2-bis[dihydro-2,2,5,5-tetramethyl-3(2H)furanone-4-methyleneamino]ethane]bis-[tris(3-methoxypropyl)phosphine]technetium-99 m(III) [Complex I]”, the “% Heart uptake” value is, setting by setting: (5 min) 0.8 %Injected dose/Organ; (60 min) 0.9 %Injected dose/Organ. Also, the Heart/Blood reads like this: (ratio at 5 min) 4.6; (ratio at 60 min) 35.6. Further, the Heart/Liver is 1.5 (ratio at 5 min) and 6.6 (ratio at 60 min).
With “trans-[1-[dihydro-2,2,5,5-tetramethyl-3(2H)furanthione-4-methyleneamino]-2-[dihydro-2,2,5,5-tetramethyl-3(2H)furanone-4-methyleneaminoethane]bis[tris(3-methoxypropyl)phosphine]technetium99 m(III) [Complex II]”, the “% Heart uptake” value stood at 0.9 %Injected dose/Organ (5 min) and 0.8 %Injected dose/Organ (60 min). Further, the Heart/Blood runs as follows: (ratio at 5 min) 6.1; (ratio at 60 min) 26.5. For the same substance, the Heart/Liver by setting is: (ratio at 5 min) 1.6; (ratio at 60 min) 5.6.
Consider “trans-[1,2-bis[dihydro-2,2,5,5-tetramethyl-3(2H)furanone-4-methyleneamino]ethane]bis-tris(2-(2-(1,3-dioxanyl))]ethylphosphine]technetium-99m(III) [Complex IV]”, for which the “% Heart uptake” value runs as follows: (5 min) 0.8 %Injected dose/Organ; (60 min) 0.9 %Injected dose/Organ. The Heart/Blood was determined as 5.4 (ratio at 5 min) and 58.6 (ratio at 60 min). Further, the Heart/Liver (ratio at 5 min) stood at 1.2 and the Heart/Liver (ratio at 60 min) is reported as 3.0.

(Values after US5112595A, “99MTC(III) myocardial imaging agents and method of use” (Mallinckrodt Medical, Inc., priority 1990, dated 1992).)
